Structures can show the parent of a compound that is named as a salt.
What was measured:
Type in all cases: physicochemical
[1] = Photostability under natural light, visual observations; conditions: 4×10^−2 M solution, 25° C. water bath
Experimental: (§1) To carry out this study, the various solutions (4×10^−2 M) are placed in a 25° C. water bath under natural light for several weeks. This gentler mode of irradiation was preferred over the use of a Xenon lamp which degrades the active principle too rapidly and makes it impossible to establish a comparison.

[2] = Photodegradation monitored by UV / visible spectrophotometry; conditions: after two months under natural exposure; for λmax (nm): visible range
Experimental: The study of the photophysical properties of promethazine hydrochloride and the association Lac6P on the one hand, and mequitazine hydrochloride and the association Lac6M on the other, was thus undertaken by UV spectrophotometry.
This study was carried out on a Hewlett-Packard 8452A diode array spectrophotometer operating at wavelengths between 190 nm and 820 nm.
The solutions were analyzed in quartz cells at concentrations of 4×10 ^−2 M and 6.6×10^−5 M.
as §1
However, in order to better understand this phenomenon, photodegradation of the hydrochlorides and the associations Lac6P and Lac6M was monitored by visible spectrophotometry. This analysis technique is particularly suited to the study of this phenomenon because it takes color variations into account.
After two months under natural exposure, the appearance of a band for promethazine and mequitazine hydrochlorides, as well as for the catanionic association Lac6P, confirms the color changes observed. It is important to note that in visible spectrophotometry, perceived color is always complementary to absorbed radiation. For example, mequitazine hydrochloride absorbs in the green spectrum (λ=512 nm) and appears pink-purple.

[3] = Photodegradation quantified by HPLC (undegraded active principle in solution); conditions: after five days under natural light, 4×10^−2 M
Experimental: Promethazine photodegradation was monitored by HPLC on a Waters 2695 chromatograph equipped with Millipore 510 pumps and an XBridge RP18 column (2.1×100 nm, 3.5 μm). Promethazine is detected by UV-visible spectrophotometry, at a wavelength of 251 nm, with a Waters 2487 Dual λ Absorbance Detector. The mobile phase is composed of a 22/78 mixture of 0.1% formic acid in water and acetonitrile. Elution is carried out in isocratic mode with a flow rate of 0.35 ml/min^−1. The volumes injected are 10 μl. All the samples were injected three times.
A calibration curve is prepared beforehand with promethazine hydrochloride over a range of concentrations between 10^5 M and 5×10^−2 M.
In order to refine the results obtained, degradation of promethazine hydrochloride and the catanionic association Lac6P was quantified by high-performance liquid chromatography (HPLC). Degradation is monitored by assaying the quantity of undegraded active principle present in solution (FIG. 2).

| SMILES | colour change of the solution (visual observation) [1] | Color observed [2] | λmax (nm) [2] [nm] | appearance of an insoluble product (visual observation) [1] | degradation rate [3] [%] |
| --- | --- | --- | --- | --- | --- |
| c1ccc2c(c1)Sc1ccccc1N2CC1CN2CCC1CC2 (centres unmarked) [Mequitazine hydrochloride, mequitazine hydrochloride] | turns pink after ten days of exposure, and then changes no further | pink-purple | 512 |  |  |
| CC(CN1c2ccccc2Sc2ccccc21)N(C)C (centres unmarked) [Promethazine hydrochloride, promethazine hydrochloride] | turns pink after 24 hours of exposure and changes to blue-violet after a few days | violet-indigo | 538 | an insoluble compound appears after about two weeks under natural light | 13 |

Source: patent US8895518B2, “Cooperative conveyance of basic active principles by amphiphilic acid molecules” (Centre National de la Recherche Scientifique, priority 2009, dated 2014)
